The source of these data is article PMC11189516, “Structure-guided conversion from an anaplastic lymphoma kinase inhibitor into Plasmodium lysyl-tRNA synthetase selective inhibitors” (Communications Biology, 2024).

For one data set, the target named is P. falciparum ProRS. The following applies: sentence of the first manuscript quoted in the peer review file; read-out: dissociation constant (KD); cited from earlier work.
The subject of a further data set is Staphylococcus aureus. Set-up: method as in PMID 6258580, PMID 659331, PMID 3923922. The note with it: cited from earlier work.
In data set [1] the target is T1, PfLysRS (Plasmodium falciparum, UniProt Q8IDJ8).
T1 construct: PfLysRS (77–583) was constructed in the vector pET20b, with a C-terminal 6×His tag; 6xHis (C); made in house; host or cells: E. coli BL21 (DE3)
T1 sequence (Q8IDJ8 entry or part of it): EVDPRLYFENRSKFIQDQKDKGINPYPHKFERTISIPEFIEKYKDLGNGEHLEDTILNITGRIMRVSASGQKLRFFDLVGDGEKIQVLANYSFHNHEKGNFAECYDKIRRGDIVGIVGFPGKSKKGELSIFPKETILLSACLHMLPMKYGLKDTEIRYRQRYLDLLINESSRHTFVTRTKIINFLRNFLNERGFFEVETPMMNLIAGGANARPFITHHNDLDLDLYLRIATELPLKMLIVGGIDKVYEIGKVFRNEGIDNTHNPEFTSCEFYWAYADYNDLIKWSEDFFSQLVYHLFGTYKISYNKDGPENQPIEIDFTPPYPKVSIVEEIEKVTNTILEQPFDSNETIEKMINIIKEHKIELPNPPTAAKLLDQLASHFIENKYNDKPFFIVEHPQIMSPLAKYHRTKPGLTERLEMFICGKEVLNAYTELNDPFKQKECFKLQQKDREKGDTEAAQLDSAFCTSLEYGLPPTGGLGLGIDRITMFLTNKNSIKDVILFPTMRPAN
Briefly: Surface plasmon resonance (SPR) assay. The class given is binding. The note with it: immobilized PfLysRS. The method, then:
PfLysRS was chemically immobilized on a Biacore CM5 sensorchip (immobilization level ~20000 resonance unit/RU) at pH 5.0 according to the immobilization kit (GE Healthcare). PfLysRS (1.7 nM) was captured for 90 s at a flow of 30 µL·min^−1. Affnity between PfLysRS and compounds was measured by SPR on a Biacore 8 K (GE Healthcare) at 25 °C with a running buffer (0.02 M phosphate buffer pH 7.4, 2.7 mM KCl, 0.137 M NaCl, 0.05% Tween 20, with 1 mM L-lysine). The association time was 90 s, the dissociation time was 120 s, and the flowrate was 30 µL·min^−1. Kinetic evaluation of the interaction between LysRS and compounds was performed by global fitting of the data to a 1:1 interaction model using Biacore Evaluation Software 3.1 (GE Healthcare).

Data set [2] concerns the target T1, PfLysRS. Briefly: ATP hydrolysis assay (Kinase-Glo) on PfLysRS. The following applies: for LogIC50 (best-fit value): log of nM. The class given is biochemical. The method, then:
(§1) The ATP hydrolysis assays were based on Kinase-Glo luminescent Kit (Promega). The experiment was carried out in Corning 384-well white flat bottom microplates. The buffer in the reaction contains 25 mM Hepes pH 7.4, 140 mM NaCl, 40 mM MgCl2, 30 mM KCl, 1 mM TCEP, 0.1 mg·mL^−1 BSA, and 0.004% Tween-20. The compounds were diluted to different concentrations with a 5-fold gradient.
(§2) For LysRS assays, DMSO was added into negative control wells and L-lysine was removed in positive control wells. 100 nM LysRS in 2.5 μL Hepes buffer was mixed with compounds and incubated for 10 min. Then 5 μL substrate mixture (2 μM ATP, 10 μM L-lysine and 31 nM pyrophosphatase) was added to start the reaction at 37 °C and incubated for 6 h.
(§3) When the reaction reaches the planned time, 10 μL diluted Kinase-Glo reagent (1/50 diluted with a buffer containing 50 mM Tris pH 7.5 and 5% glycerol) was added and incubated for 15 min. Luminescence was measured on the Magellan plate reader (Tecan) and nonlinear regression was performed with Prism (GraphPad).
Background: Kinase-Glo measures the ATP left after a reaction by luminescence.

Data set [3] has as its target T1, PfLysRS. Briefly: Thermal shift assay. The class given is binding. The note with it: for ΔTm at 200 µM: in the presence of L-lysine. As to the method:
PfLysRS protein was prepared at 10 μM concentration in a buffer containing 20 mM Tris pH 8.0, 200 mM NaCl, 500 μM L-lysine, and 200 μM Compound. Aliquots (18 µL) were added to a 96-well PCR plate and incubated at ambient temperature for 10 min. SYPRO Orange dye (Sigma) was diluted in the assay buffer containing 20 mM Tris pH 8.0 and 200 mM NaCl to a 40× concentration, and 2 µL of the 40× dye solution was added to the PCR plate to bring the final assay volume to 20 µL. After complete mixing, the final solutions were heated from 25 to 90 °C at a rate of 0.015 °C per sec, and fluorescence signals were monitored by QuantStudio 3 (Applied Biosystems by Thermo Fisher Scientific).

Another data set has as its target T2, ALK (Homo sapiens, UniProt Q9UM73).
T2 construct: The plasmid pCDNA3.1_8×His-tev-ALK (kinase domain, 1068–1410) was constructed; 8xHis (N); TEV site (N); made in house; host or cells: Expi293 cells (transient transfection)
Briefly: ATP hydrolysis assay (Kinase-Glo) on ALK. The class given is biochemical. The method, then:
as §1
For ALK assays, DMSO was added into negative control wells. 100 nM ALK in 2.5 μL Hepes buffer was mixed with compounds and incubated for 10 min. Then 5 μL substrate (2 μM ATP) was added to start the reaction at 37 °C and incubated for 6 h.
as §3

The target of the next data set is T3, HsLysRS (Homo sapiens, UniProt Q15046).
T3 construct: HsLysRS (70–581) was constructed in the vector pET20b with a C-terminal 6×His tag; 6xHis (C); made in house; host or cells: E. coli (pET20b; 'purified similarly' to PfLysRS, which was expressed in BL21 (DE3))
T3 sequence (Q15046 70-581): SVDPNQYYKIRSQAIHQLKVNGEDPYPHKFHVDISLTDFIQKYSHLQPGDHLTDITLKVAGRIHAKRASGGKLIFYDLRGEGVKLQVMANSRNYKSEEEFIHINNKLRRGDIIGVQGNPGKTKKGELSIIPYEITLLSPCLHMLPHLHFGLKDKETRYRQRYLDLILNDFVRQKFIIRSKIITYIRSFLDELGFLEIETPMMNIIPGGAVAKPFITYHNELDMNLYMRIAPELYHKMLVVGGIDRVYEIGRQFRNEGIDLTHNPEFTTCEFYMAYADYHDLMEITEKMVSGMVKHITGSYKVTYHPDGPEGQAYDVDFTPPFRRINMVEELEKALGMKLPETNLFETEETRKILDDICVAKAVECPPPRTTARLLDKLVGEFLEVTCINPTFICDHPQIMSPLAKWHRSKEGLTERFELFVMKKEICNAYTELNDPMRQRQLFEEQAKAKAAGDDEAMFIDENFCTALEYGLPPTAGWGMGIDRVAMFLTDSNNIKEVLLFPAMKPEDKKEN
Briefly: ATP hydrolysis assay (Kinase-Glo) on HsLysRS. The class given is biochemical. The method, then:
as §1, §2, §3

Data set [4] in a line: Solubility noted in the cytotoxicity assay. The format is physicochemical. The following applies: highest concentration limited to 100 μM in cell medium. As to the method:
Cell viability was analyzed by Cell Counting Kit-8 (CCK8, ApexBio) according to the manufacturer’s protocols. Cells were seeded and cultured at a density of 2.5 × 10^3 cells per well in 100 μL medium in 96-well microplates (Corning). Then, the cells were treated with different concentrations of compound (0, 1 μM, 3 μM, 10 μM, 100 μM, 300 μM). […] After treatment for 72 h, 10 μL of CCK-8 reagent was added to each well and then cultured for 4 h. All experiments were performed in pentaplicate. The absorbance was analyzed at 450 nm using a microplate reader (Tecan) using medium without cells as blanks. Data was processed using GraphPad Prism 9.

Data set [5] concerns the target T1, PfLysRS. The note with it: cited from earlier work.
Data set [6] relates to erythrocytic-stage P. falciparum 3D7 parasites. Details: method as in PMID 33053158. The following applies: read-out: EC50, growth of erythrocytic-stage P. falciparum 3D7; cited from earlier work.
Where [7] appears, read: +Lysine, sheet Figure 6B, in °C (unit assumed).

In brackets after ≈: the same amount, converted by molar mass. Several values for one entry are separate records, joined by “and”; a condition that tells them apart may be missing. Equal entries are not always repeated. Where two headings read alike, the source gives them in different places.

T2 sequence (Q9UM73 1068-1410): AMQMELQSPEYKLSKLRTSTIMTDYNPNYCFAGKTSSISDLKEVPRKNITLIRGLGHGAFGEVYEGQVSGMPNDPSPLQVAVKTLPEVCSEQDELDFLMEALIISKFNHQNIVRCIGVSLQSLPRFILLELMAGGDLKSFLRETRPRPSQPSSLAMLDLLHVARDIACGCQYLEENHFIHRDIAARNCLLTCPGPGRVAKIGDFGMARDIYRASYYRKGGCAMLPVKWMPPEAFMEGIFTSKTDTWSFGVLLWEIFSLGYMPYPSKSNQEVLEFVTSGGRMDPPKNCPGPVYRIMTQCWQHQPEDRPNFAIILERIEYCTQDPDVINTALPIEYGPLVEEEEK

The term Kd denotes the equilibrium constant for the complex coming apart. As for `O=C(CC1NCCCC1O)Cn1cnc2cc(Br)c(Cl)cc2c1=O` (centres unmarked) [Halofuginone], at P. falciparum ProRS, the Kd was 19 nM.
For orientation: MIC means the lowest concentration that inhibits growth of the organism. On to `C/C(=C\C(=O)OCCCCCCCCC(=O)O)C[C@@H]1OC[C@H](C[C@@H]2O[C@H]2[C@@H](C)[C@H](C)O)[C@@H](O)[C@H]1O` [Mupirocin], for which, in the data set on Staphylococcus aureus, the minimal inhibitory concentration (MIC) is 0.05 µg/mL (≈ 0.0999 µM).
As usually defined, the koff is the rate constant with which the complex falls apart. Higher therefore signals fast dissociation. The term IC50 denotes the concentration at which inhibition is half-maximal. The ΔTm is the shift of the melting midpoint relative to a reference. On PfLysRS [1], `COc1ccc(OC)c(Nc2ncnc(Nc3ccccc3S(=O)(=O)CCCNC(=O)[C@@H](N)CCCCN)n2)c1` [Compound 36K3] yielded a koff of 0.0113 s⁻¹ and a kon of 911000 M/s. Moreover, on PfLysRS [1] (1 mM L-lysine in running buffer, read-out: dissociation constant (KD)), the Kd stood at 12.4 nM. On PfLysRS [2] (PfLysRS), the “HillSlope (best-fit value)” value came out at 1.065 and the “LogIC50 (best-fit value)” value turned out to be 1.772. The concentration for half-maximal inhibition (IC50) at PfLysRS [2] (read-out: IC50 against PfLysRS) amounted to 59.2 nM. The “△Tm of PfLysRS” value at PfLysRS [3] (+Lysine, sheet Figure 6B) came out at 12.798. Besides, on PfLysRS [3] (setting [7]), the “Tm of PfLysRS, Average” value was 57.818; the “Tm of PfLysRS, single repeat” value was 57.710 and 57.895 and 57.833. Besides, on PfLysRS [3], the ΔTm at 200 µM came out at 12.8 °C. For the same compound, the concentration for half-maximal inhibition (IC50) on ALK (read-out: IC50 against ALK) is over 74400 nM. In addition, at HsLysRS (PfLysRS vs HsLysRS), the “apparent selectivity index for HsLysRS” value worked out at 200. Moreover, the half-inhibitory concentration (IC50) on HsLysRS (read-out: IC50 against HsLysRS) turned out to be 12000 nM. In addition, the “solubility” value in data set [4] is listed as “poor solubility”.
One may read the EC50 as the midpoint of the concentration-response curve. As to `COc1cc(N2CCC(N3CCN(C)CC3)CC2)ccc1Nc1ncnc(Nc2ccccc2S(=O)(=O)C(C)C)n1` [ASP3026, N-{2-Methoxy-4-[4-(4-methylpiperazin-1-yl)piperidin-1-yl]phenyl}-N’-[2-(propane-2-sulfonyl)phenyl]-1,3,5-triazine-2,4-diamine], the half-inhibitory concentration (IC50) on PfLysRS [2] (read-out: IC50 against PfLysRS) is 967 ± 170 nM; at PfLysRS [5] (another kit, different buffer system, ref nucleic acid research paper, read-out: previously reported IC50 against PfLysRS) it was 657 ± 195 nM. The “inhibitory effect on human ALK stronger than on PfLysRS” value at PfLysRS [5] (ref original Nucleic Acid Research paper) was “about 200 times”. In addition, the EC50 in data set [6] was 5610 nM.
For orientation: % Inhibition means the relative decrease from the control value, in per cent. Consider `COc1ncccc1Nc1ncnc(Nc2ccccc2S(=O)(=O)C(C)C)n1` [Compound 38a], for which the “HillSlope (best-fit value)” value is recorded as 0.6952 on PfLysRS [2] (PfLysRS), 0.6894 on ALK (ALK) and 1.205 at HsLysRS (HsLysRS). Moreover, the “LogIC50 (best-fit value)” value on PfLysRS [2] (PfLysRS) came out at 2.755; on ALK (ALK, log of nM), 2.857; at HsLysRS (HsLysRS, log of nM), 4.923. Moreover, the IC50 on PfLysRS [2] (PfLysRS, source data, read-out: IC50 (best-fit value)) stood at 568 nM; at PfLysRS [2] (read-out: IC50 against PfLysRS), 568 nM; on ALK (ALK, source data, read-out: IC50 (best-fit value)), 719 nM; at ALK (read-out: IC50 against ALK), 719 ± 182 nM; on HsLysRS (HsLysRS, source data, read-out: IC50 (best-fit value)), 83700 nM; on HsLysRS (read-out: IC50 against HsLysRS), 84000 nM. At PfLysRS [3] (+Lysine), the “Tm of PfLysRS, Average” value amounted to 48.001 °C. At PfLysRS [3] (+Lysine), the “Tm of PfLysRS, single repeat” value is 48.109 °C and 48.140 °C and 47.986 °C and 47.770 °C. Besides, on PfLysRS [3], the thermal shift (ΔTm) at 200 µM came to 7.9 °C. For the same compound, the “% Inhibition” value on HsLysRS (HsLysRS, Log(Concentration)/nM 2.505, single repeats) is 3.343% and 6.292% and 8.061%; at HsLysRS (HsLysRS, Log(Concentration)/nM 3.204, single repeats) it was -0.8065% and 1.795% and 3.658%; on HsLysRS (HsLysRS, Log(Concentration)/nM 3.903, single repeats) it was 7.774% and 9.643% and 10.78%; at HsLysRS (HsLysRS, Log(Concentration)/nM 4.602, single repeats), 27.95% and 31.1% and 35.27%; on HsLysRS (HsLysRS, Log(Concentration)/nM 5.301, single repeats), 65.61% and 74.02% and 86.84%; at HsLysRS (HsLysRS, Log(Concentration)/nM 6.000, single repeats), 101.8% and 97.59% and 99.58%.
